Measurements: PubChem BioAssay (NCI)
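Interpolation was linear, between the two tested concentrations surrounding the appropriate level; five concentrations were tested over 48 hours in 96-well plates. At the GI50, growth is halved. The concentration for full growth arrest is given as TGI.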

Experiments:
Assay in all cases: inhibition of tumour cell growth, NCI panel, 48 h
[1] = tested on: 786-0 renal
[2] = tested on: BT-549 breast
[3] = tested on: NCI-H23 lung
[4] = tested on: OVCAR-3 ovarian
[5] = tested on: SF-295 CNS
[6] = tested on: SK-MEL-28 melanoma
[7] = tested on: T-47D breast
[8] = tested on: UACC-257 melanoma
[9] = tested on: LXFL 529 NSCLC
[10] = tested on: M19-MEL melanoma

## COc1cc(OC)c2c(=O)cc(-c3ccccc3OCc3ccccc3)oc2c1OC
[1]
  GI50: 5.49 µM
  TGI: 56.4 µM
[2]
  GI50: 3.76 µM
  TGI: 24.6 µM
[3]
  GI50: 5.94 µM
  TGI: 23.4 µM
[4]
  GI50: 4.15 µM
  TGI: 16.5 µM
[5]
  GI50: 4.65 µM
  TGI: 26.8 µM
[6]
  GI50: 12.7 µM
  TGI: 46.5 µM
[7]
  GI50: 18.7 µM
  TGI: > 100 µM
[8]
  GI50: 6.05 µM
  TGI: 82.1 µM

## Cc1c(Nc2nccc3cc(CN4CC[C@@H](O)C4)cnc23)cccc1-c1cccc(-c2nc3cc(CN4CC[C@@H](C(=O)O)C4)cc(C#N)c3o2)c1C
[1]
  GI50: 4.5 µM
  TGI: > 100 µM
[2]
  GI50: 1.75 µM
  TGI: 8.68 µM
[3]
  GI50: 12 µM
  TGI: 27.1 µM
[4]
  GI50: 14.8 µM
  TGI: > 100 µM
[5]
  GI50: 3.98 µM
  TGI: > 100 µM
[6]
  GI50: 11.6 µM
  TGI: 27.8 µM
[7]
  GI50: > 100 µM
  TGI: > 100 µM
[8]
  GI50: 14.2 µM
  TGI: 32.5 µM

## FC(F)c1ncc(-c2ccc(C(F)(F)F)cc2)c(NC2CCCCCC2)n1
[1]
  GI50: > 10 µM
  TGI: > 10 µM
[2]
  GI50: > 10 µM
  TGI: > 10 µM
[3]
  GI50: > 10 µM
  TGI: > 10 µM
[4]
  GI50: > 10 µM
  TGI: > 10 µM
[5]
  GI50: > 10 µM
  TGI: > 10 µM
[6]
  GI50: > 10 µM
  TGI: > 10 µM
[7]
  GI50: > 10 µM
  TGI: > 10 µM
[8]
  GI50: > 10 µM
  TGI: > 10 µM

## OCCCCC#Cc1ccccc1C#Cc1cccnc1
[1]
  GI50: 20.2 µM
  TGI: 58.3 µM
[2]
  GI50: 28.4 µM
  TGI: > 100 µM
[3]
  GI50: 28 µM
  TGI: > 100 µM
[4]
  GI50: 32.9 µM
  TGI: > 100 µM
[5]
  GI50: 22.3 µM
  TGI: 60.4 µM
[6]
  GI50: 23.7 µM
  TGI: > 100 µM
[7]
  GI50: 34.7 µM
  TGI: > 100 µM
[8]
  GI50: 25 µM
  TGI: 54.1 µM

## COc1ccc(Nc2ncnc3ccc(-c4cncc(NS(C)(=O)=O)c4)cc23)cc1Cl
[1]
  GI50: 2.99 µM
  TGI: 13 µM
[2]
  GI50: 1.67 µM
  TGI: 7.12 µM
[3]
  GI50: 2.66 µM
  TGI: 15 µM
[4]
  GI50: 1.66 µM
  TGI: 4.78 µM
[5]
  GI50: 2.51 µM
  TGI: 10.1 µM
[6]
  GI50: 2.75 µM
  TGI: 18.4 µM
[7]
  GI50: 0.177 µM
  TGI: 1.61 µM
[8]
  GI50: 2.82 µM
  TGI: 14 µM

## CCN1CCN(c2cc(C(=O)Nc3cccc(Nc4ccc5c(OC)cccc5n4)c3)cc(C(F)(F)F)c2)CC1
[1]
  GI50: 3.73 µM
  TGI: 7.84 µM
[2]
  GI50: 3.78 µM
  TGI: 8.67 µM
[3]
  GI50: 3.41 µM
  TGI: 8.12 µM
[4]
  GI50: 3.41 µM
  TGI: 9.04 µM
[5]
  GI50: 0.803 µM
  TGI: 2.25 µM
[6]
  GI50: 0.846 µM
  TGI: 2.2 µM
[7]
  GI50: 2.05 µM
  TGI: 11.7 µM
[8]
  GI50: 1.02 µM
  TGI: 3.6 µM

## CCCCCCC(=O)C/C(CCC(=O)N(Cc1ccccc1)Cc1ccccc1)=N\NC(N)=O
[1]
  TGI: > 100 µM
[9]
  TGI: > 100 µM
[10]
  TGI: > 100 µM
[3]
  TGI: > 100 µM
[4]
  TGI: > 100 µM
[5]
  TGI: > 100 µM
[6]
  TGI: > 100 µM
[8]
  TGI: > 100 µM
